This passage reports Ki and Km results from publication PMC6530601, “Rapid and Scalable Plant-Based Production of a Potent Plasmin Inhibitor Peptide” (Frontiers in Plant Science, 2019).

Bridge positions count the residues as written; N and C are the ends. Peptide text beside a SMILES is read from it.

The target in assay [1] is T1, native human plasmin (Homo sapiens, UniProt P00747).
T1 construct: incubated with 1 nM native human plasmin (Sigma-Aldrich); purchased Sigma-Aldrich
The experiment in a line: Plasmin inhibitory assay (chromogenic peptide substrate). The format is biochemical. To be noted: plant-derived peptide; 1 nM native human plasmin, 30 min pre-incubation, 0.1 M Tris-HCl, pH 8.0, 0.1 M NaCl, 0.005% Triton X-100; 100 μM Acetyl-Arg-Met(sulphone)-Tyr-Arg-pNA, 405 nm over 7 min; Morrison equation; n = 3 independent assays; read-out: inhibition constant (Ki). Here is the method: A serial dilution of plant-derived [T4Y,I7R]SFTI-1 was incubated with 1 nM native human plasmin (Sigma-Aldrich) for 30 min in assay buffer (0.1 M Tris-HCl, pH 8.0, 0.1 M NaCl, and 0.005% Triton X-100) in low binding 96-well plates (Corning). […] The inhibition constant (Ki) was determined from three independent assays by the Morrison equation and non-linear regression using GraphPad Prism 6.

For assay [2], the target named is T1, native human plasmin. Particulars: substrate of plasmin assay; determination not described, no reference given; cited from earlier work. Here is the method: A serial dilution of plant-derived [T4Y,I7R]SFTI-1 was incubated with 1 nM native human plasmin (Sigma-Aldrich) for 30 min in assay buffer (0.1 M Tris-HCl, pH 8.0, 0.1 M NaCl, and 0.005% Triton X-100) in low binding 96-well plates (Corning). […] The inhibition constant (Ki) was determined from three independent assays by the Morrison equation and non-lin ...

T1 sequence (P00747 581-810 limits assumed): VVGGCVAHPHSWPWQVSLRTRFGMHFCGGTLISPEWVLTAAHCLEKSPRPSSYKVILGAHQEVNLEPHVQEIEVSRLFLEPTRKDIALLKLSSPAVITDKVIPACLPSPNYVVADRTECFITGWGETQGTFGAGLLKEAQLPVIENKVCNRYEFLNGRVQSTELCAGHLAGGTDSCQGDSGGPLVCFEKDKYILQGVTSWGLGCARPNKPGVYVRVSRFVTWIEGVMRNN
T1 sequence (P00747 97-580 partner limits assumed): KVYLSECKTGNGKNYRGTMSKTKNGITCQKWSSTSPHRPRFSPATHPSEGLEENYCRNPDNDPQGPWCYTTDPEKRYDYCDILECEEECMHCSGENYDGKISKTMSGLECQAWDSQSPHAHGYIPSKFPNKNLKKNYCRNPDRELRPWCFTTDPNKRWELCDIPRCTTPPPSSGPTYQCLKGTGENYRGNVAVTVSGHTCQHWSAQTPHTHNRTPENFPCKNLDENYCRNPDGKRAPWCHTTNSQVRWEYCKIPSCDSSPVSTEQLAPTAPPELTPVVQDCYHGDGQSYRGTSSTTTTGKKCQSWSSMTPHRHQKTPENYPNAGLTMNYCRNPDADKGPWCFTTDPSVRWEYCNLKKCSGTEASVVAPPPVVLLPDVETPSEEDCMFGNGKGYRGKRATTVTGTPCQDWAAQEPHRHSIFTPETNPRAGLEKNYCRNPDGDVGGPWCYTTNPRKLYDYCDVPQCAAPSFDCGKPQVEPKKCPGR

Regarding `CC[C@H](C)[C@@H]1NC(=O)[C@@H]2CCCN2C(=O)[C@@H]2CCCN2C(=O)[C@H](CCCNC(=N)N)NC(=O)[C@H](CO)NC(=O)[C@H](CCCCN)NC(=O)[C@H](Cc2ccc(O)cc2)NC(=O)[C@@H]2CSSC[C@H](NC1=O)C(=O)N[C@@H](Cc1ccccc1)C(=O)N1CCC[C@H]1C(=O)N[C@@H](CC(=O)O)C(=O)NCC(=O)N[C@@H](CCCNC(=N)N)C(=O)N2` [[T4Y,I7R]SFTI-1] (cyclo(CFPDGRCYKSRPPI); disulfide 1-7), the Ki in assay [1] worked out at 0.025 ± 0.004 nM.

Turning to “Acetyl-Arg-Met(sulphone)-Tyr-Arg-pNA [colorimetric peptide substrate of plasmin]”, in assay [2], the Km was 23.5 µM.
